Experimental data: patent publication US11639353B2, “Cyclobutanes- and azetidine-containing mono and spirocyclic compounds as αV integrin inhibitors” (BRISTOL-MYERS SQUIBB COMPANY, priority 2016, dated 2023)
Counter-ions that a name gives are not always drawn.

Biological target: T1, human αVβ6 (Homo sapiens, UniProt P06756+P18564)
T1 construct: purchased R & D systems 3817-AV
Test: human αVβ6 HTRF binding assay
Conditions: alternatively SPA-based assay
Description: All binding assays used the HTRF (homogeneous time resolved fluorescence) technology from Cisbio International, therefore all assays are described as HTRF binding assays. The assay results for the Examples are listed above together with the characterization data. The HTRF binding assays are established for the following integrins: human αVβ6, human αVβ1, human αVβ3, human αVβ5, and human αVβ8. All assays used the following assay buffer: 20 mM Tris, pH 7.4, 1 mM MgCl2, 1 mM MnCl2, 0.01% Tween 20, and 0.01% BSA. Alternatively, a SPA-based assay was used for evaluation of receptor binding.
The following describes the components and a representative procedure for the human αVβ6 HTRF binding assay: Recombinant human αVβ6 Integrin (R & D systems, 3817-AV) was biotinylated. Biotinylated human αVβ6 Integrin was added to assay vessel at a final concentration of 1.25 nM. FITC-conjugated fibronectin (Cytoskeleton, FNR02) was then added at the final concentration of 5 nM. The mixture was centrifuged at 600 rpm for three minutes using Thermo Fisher Heraeus Multifuge X3 centrifuge and then incubated at RT for an hour. Streptavidin Terbium (Cisbio international 610STLB) was then added at the final concentration of 0.625 nM. The resulting mixture was centrifuged at 600 rpm for three minutes using Thermo Fisher Heraeus Multifuge X3 centrifuge and then incubated at room temperature overnight in dark before reading HTRF signals.
The SPA-based assay was carried out according to the protocol and procedures similar to the ones described in the following reference with appropriate modifications to agents and ligands which are readily understood by one skilled in the art: Pachter J A, Zhang R, Mayer-Ezell R., “Scintillation proximity assay to measure binding of soluble fibronectin to antibody-captured αVβ1 integrin” Anal Biochem. 1995 Sep. 1; 230(1):101-7.

T1 sequence (P06756 31-992 limits assumed): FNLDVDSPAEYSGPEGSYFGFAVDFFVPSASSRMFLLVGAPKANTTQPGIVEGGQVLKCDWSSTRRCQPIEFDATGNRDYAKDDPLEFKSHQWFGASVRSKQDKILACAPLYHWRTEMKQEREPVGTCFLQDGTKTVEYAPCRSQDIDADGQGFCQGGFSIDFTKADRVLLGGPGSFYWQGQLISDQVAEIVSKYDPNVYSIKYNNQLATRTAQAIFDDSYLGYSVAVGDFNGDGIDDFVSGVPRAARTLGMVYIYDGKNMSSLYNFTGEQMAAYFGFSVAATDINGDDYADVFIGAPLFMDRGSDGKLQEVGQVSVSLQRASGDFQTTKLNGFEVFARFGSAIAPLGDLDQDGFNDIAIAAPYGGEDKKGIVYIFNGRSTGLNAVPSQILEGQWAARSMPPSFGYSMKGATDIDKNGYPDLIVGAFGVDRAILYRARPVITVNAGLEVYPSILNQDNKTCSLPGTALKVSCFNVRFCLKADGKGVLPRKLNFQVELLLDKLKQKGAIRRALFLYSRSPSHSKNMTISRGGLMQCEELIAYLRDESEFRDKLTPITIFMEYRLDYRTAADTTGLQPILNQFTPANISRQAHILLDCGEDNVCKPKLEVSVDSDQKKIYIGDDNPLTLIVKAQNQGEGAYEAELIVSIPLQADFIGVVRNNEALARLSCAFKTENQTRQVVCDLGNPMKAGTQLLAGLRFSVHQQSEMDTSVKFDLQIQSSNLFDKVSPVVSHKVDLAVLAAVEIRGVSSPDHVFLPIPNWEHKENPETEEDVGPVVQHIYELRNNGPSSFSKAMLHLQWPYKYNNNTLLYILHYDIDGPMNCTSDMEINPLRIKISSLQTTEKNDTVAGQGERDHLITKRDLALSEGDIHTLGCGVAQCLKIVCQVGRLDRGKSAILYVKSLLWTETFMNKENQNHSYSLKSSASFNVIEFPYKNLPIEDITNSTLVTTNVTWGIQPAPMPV
T1 sequence (P18564 22-707 limits assumed): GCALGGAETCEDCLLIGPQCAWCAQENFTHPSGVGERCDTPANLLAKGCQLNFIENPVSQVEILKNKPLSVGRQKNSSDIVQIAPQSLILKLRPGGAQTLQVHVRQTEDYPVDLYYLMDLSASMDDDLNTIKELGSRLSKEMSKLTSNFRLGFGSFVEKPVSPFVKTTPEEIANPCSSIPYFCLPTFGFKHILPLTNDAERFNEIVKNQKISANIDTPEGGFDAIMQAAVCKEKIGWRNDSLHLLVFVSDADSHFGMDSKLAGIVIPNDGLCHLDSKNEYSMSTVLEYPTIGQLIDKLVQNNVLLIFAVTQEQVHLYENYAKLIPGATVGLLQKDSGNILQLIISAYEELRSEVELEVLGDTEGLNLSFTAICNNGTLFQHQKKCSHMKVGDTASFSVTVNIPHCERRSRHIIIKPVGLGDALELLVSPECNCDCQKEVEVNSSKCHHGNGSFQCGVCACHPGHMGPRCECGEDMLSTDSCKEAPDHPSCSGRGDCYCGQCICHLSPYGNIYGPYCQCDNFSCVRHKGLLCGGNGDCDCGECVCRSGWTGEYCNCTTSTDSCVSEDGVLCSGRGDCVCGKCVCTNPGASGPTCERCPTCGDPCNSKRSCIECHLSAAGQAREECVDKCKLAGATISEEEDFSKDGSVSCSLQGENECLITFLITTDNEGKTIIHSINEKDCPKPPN

Compound	IC50 [nM]
COc1ccc([C@@H](CC(=O)O)C2(F)CN(C(=O)CCCc3ccc4c(n3)NCCC4)C2)cc1F [Example 95]	230
COc1ccc(C(CC(=O)O)N2CC(OCCCc3ccc4c(n3)NCCC4)C2)cc1F (stereo not drawn) [Example 135, 3-(3-fluoro-4-methoxyphenyl)-3-(3-(3-(5,6,7,8-tetrahydro-1,8-naphthyridin-2-yl)propoxy)azetidin-1-yl)propanoic acid, 2 TFA]	4.9
COc1ccc([C@H](CC(=O)O)NC2CN(CCCc3ccc4c(n3)NCCC4)C2)cc1F [Example 72]	1.1
COc1ccc(C(CC(=O)O)N2CC(OCCCc3ccc4c(n3)NCCC4)C2)cn1 (stereo not drawn) [Example 134, 3-(6-methoxypyridin-3-yl)-3-(3-(3-(5,6,7,8-tetrahydro-1,8-naphthyridin-2-yl)propoxy)azetidin-1-yl)propanoic acid, 2 TFA]	4.6
(S)-Ethyl 3-(6-methoxypyridin-3-yl)-3-(1-methyl-3-(2-(5,6,7,8-tetrahydro-1,8-naphthyridin-2-yl)ethyl)cyclobutanecarboxamido)propanoate [Example 16]	2.6
O=C(O)C[C@H](NC(=O)C1CC2(C1)CN(CCCc1ccc3c(n1)NCCC3)C2)c1cc(Cl)cc(Cl)c1 [Example 3, (S)-3-(3,5-Dichlorophenyl)-3-(2-(3-(5,6,7,8-tetrahydro-1,8-naphthyridin-2-yl)propyl)-2-azaspiro[3.3]heptane-6-carboxamido)propanoic acid]	21
COc1ccc([C@H](CC(=O)O)NC(=O)C2CC3(CC(CCc4ccc5c(n4)NCCC5)C3)C2)cn1 (mixture of isomers) [Example 50]	110
O=C(O)C[C@H](NC1CC2(C1)CN(CCCc1ccc3c(n1)NCCC3)C2)c1cc(Cl)cc(Cl)c1 [Example 79]	3.2
COc1ccc([C@H](CC(=O)O)C2(F)CN(C(=O)CCCc3ccc4c(n3)NCCC4)C2)cc1F [Example 94]	10
COc1ccc(C(CC(=O)O)C2CC3(C2)CN(CCc2ccc4c(n2)NCCC4)C3)cc1F (stereo not drawn) [Example 116]	2.4
COc1ccc([C@H](CC(=O)O)NC(=O)C2CN(CCCc3ccc4c(n3)NCCC4)C2)cn1 [Example 40]	1.6
Cc1cc(C)c(S(=O)(=O)N[C@@H](CNC(=O)C2CC3(CC(CCc4ccc5c(n4)NCCC5)C3)C2)C(=O)O)c(C)c1 (stereo partly drawn) [Example 5, (S)-3-(6-(2-(5,6,7,8-Tetrahydro-1,8-naphthyridin-2-yl)ethyl)spiro[3.3]heptane-2-carboxamido)-2-((2,4,6-trimethylphenyl)sulfonamido)propanoic acid]	1.3
O=C(O)CC(c1cnc2ccccc2c1)C1CC2(C1)CN(CCc1ccc3c(n1)NCCC3)C2 (stereo not drawn) [Example 101]	4.7
COc1ccc([C@H](CC(=O)O)NC2CC3(C2)CN(CCc2ccc4c(n2)NCCC4)C3)cn1 [Example 75]	17
Cc1cc(C)c(S(=O)(=O)N[C@@H](CNC(=O)C2CC3(C2)CN(CCc2ccc4c(n2)NCCC4)C3)C(=O)O)c(C)c1 [Example 35]	2.7
COc1ccc([C@H](CC(=O)O)NC(=O)C2(F)CN(CCc3ccc4c(n3)NCCC4)C2)cn1 [Example 46]	0.6
O=C(O)C[C@@H](c1ccc2c(c1)OCC2)N1CC(CCCCc2ccc3c(n2)NCCC3)C1=O (stereo partly drawn) [Example 105]	3.9
O=C(O)CC(c1cnc2ccccc2c1)N1CC(OCCCc2ccc3c(n2)NCCC3)C1 (stereo not drawn) [Example 133]	5.6
CCOC(=O)C[C@H](NC(=O)C1CN(CCc2ccc3c(n2)NCCC3)C1)c1ccc(OC)nc1 [Example 48]	400
COc1ccc([C@H](CC(=O)O)C2(F)CN(C(=O)CCCc3ccc4c(n3)NCCC4)C2)cn1 (single isomer, unassigned) [Example 17]	29
COc1ccc([C@H](CC(=O)O)NC2CN(CCCc3ccc4c(n3)NCCC4)C2)cn1 [Example 11, (S)-3-(6-Methoxypyridin-3-yl)-3-((1-(3-(5,6,7,8-tetrahydro-1,8-naphthyridin-2-yl)propyl)azetidin-3-yl)amino)propanoic acid]	0.5
Cc1cc(C)c(S(=O)(=O)N[C@@H](CNC(=O)C2CN(CCCc3ccc4c(n3)NCCC4)C2)C(=O)O)c(C)c1 [Example 14, (S)-3-(1-(3-(5,6,7,8-Tetrahydro-1,8-naphthyridin-2-yl)propyl)azetidine-3-carboxamido)-2-(2,4,6-trimethylphenylsulfonamido)propanoic acid]	0.7
O=C(O)CC(c1cnc2ccccc2c1)C1CN(CCCCc2ccc3c(n2)NCCC3)C1 (stereo not drawn) [Example 142]	9.9
COc1ccc([C@H](CC(=O)O)N2CC(CCCCc3ccc4c(n3)NCCC4)C2)cn1 [Example 151]	3.6
O=C(O)C[C@H](NC(=O)C1CC2(C1)CN(CCc1ccc3c(n1)NCCC3)C2)c1cc(Cl)cc(Cl)c1 [Example 33]	2.7

Second part, the compound after the results:

IC50 [nM]	Compound
5000	COc1ccc(C(NC(=O)C2CC(CCc3ccc4c(n3)NCCC4)C2)C(C)(C)C(=O)O)cn1 (single isomer, unassigned) [Example 189, 3-(6-methoxypyridin-3-yl)-2,2-dimethyl-3-(3-(2-(5,6,7,8-tetrahydro-1,8-naphthyridin-2-yl)ethyl)cyclobutane-1-carboxamido)propanoic acid]
38	Cc1ncc([C@@H](CC(=O)O)N2CC(COCCc3ccc4c(n3)NCCC4)C2)cn1 [example 128, (R)-3-(2-methylpyrimidin-5-yl)-3-(3-((2-(5,6,7,8-tetrahydro-1,8-naphthyridin-2-yl)ethoxy)methyl)azetidin-1-yl)propanoic acid]
3.3	Cc1ncc(C(CC(=O)O)N2CC3(CC(CCc4ccc5c(n4)NCCC5)C3)C2)cn1 (stereo not drawn) [Example 206]
1.1	O=C(O)C[C@@H](c1cnc2ccccc2c1)N1CC(CCCCc2ccc3c(n2)NCCC3)C1 [Example 153]
2.2	O=C(O)C[C@@H](c1cnc2ccccc2c1)N1CC(F)(CCCCc2ccc3c(n2)NCCC3)C1 [Example 166]
2	COc1ccc([C@H](CC(=O)O)N2CC(c3ccc(-c4ccc5c(n4)NCCC5)cc3)C2=O)cn1 (single isomer, unassigned) [Example 183]
1.5	O=C(O)C[C@@H](c1ccc2c(c1)OCC2)N1CC(CCCCc2ccc3c(n2)NCCC3)C1 [Example 155]
3	O=C(O)C[C@@H](c1cncnc1)N1CC(CCCCc2ccc3c(n2)NCCC3)C1 [Example 157]
2.5	COc1ccc([C@H](CC(=O)O)N2CC(F)(CCCCc3ccc4c(n3)NCCC4)C2)cc1F [Example 165]
1.3	CC1(CCCCc2ccc3c(n2)NCCC3)CN([C@@H](CC(=O)O)c2cc(F)cc(F)c2)C1 [Example 160]
5.6	COc1ccc(C(CC(=O)O)N2CC3(CC(Cc4ccc5c(n4)NCCC5)C3)C2)cc1F (stereo not drawn) [Example 210, 3-(3-fluoro-4-methoxyphenyl)-3-(6-((5,6,7,8-tetrahydro-1,8-naphthyridin-2-yl)methyl)-2-azaspiro[3.3]heptan-2-yl)propanoic acid]
2.4	COc1ccc(C(CC(=O)O)N2CC3(CC(Cc4ccc5c(n4)NCCC5)C3)C2)cn1 (stereo not drawn) [Example 208, 3-(6-methoxypyridin-3-yl)-3-(6-((5,6,7,8-tetrahydro-1,8-naphthyridin-2-yl)methyl)-2-azaspiro[3.3]heptan-2-yl)propanoic acid]
18	Cc1cc(C)c(S(=O)(=O)N[C@@H](CN2CC(CCCc3ccc4c(n3)NCCC4)C2=O)C(=O)O)c(C)c1 (single isomer, unassigned) [Example 185]
2.6	O=C(O)C[C@@H](c1ccc(F)c(F)c1)N1CC(F)(CCCCc2ccc3c(n2)NCCC3)C1 [Example 164]
55	COc1ccc([C@H](CC(=O)O)N2CC(CCCc3ccc4c(n3)NCCC4)C2=O)cc1F (single isomer, unassigned) [Example 179]
4300	COc1ccc(C(NC(=O)C2CC(CCc3ccc4c(n3)NCCC4)C2)C(C)(C)C(=O)O)cn1 (stereo not drawn) [Example 191]
3.8	Cc1cc(C)c(S(=O)(=O)N[C@@H](CNC(=O)[C@H]2C[C@@H](Cc3ccc4c(n3)NCCC4)C2)C(=O)O)c(C)c1 [Example 200, (S)-3-(cis-3-((5,6,7,8-Tetrahydro-1,8-naphthyridin-2-yl)methyl)-cyclobutane-1-carboxamido)-2-((2,4,6-trimethylphenyl)sulfonamido)-propanoic acid]
24	O=C(O)[C@H](CN1CC(CCCc2ccc3c(n2)NCCC3)C1=O)NS(=O)(=O)c1ccc(F)cc1 (single isomer, unassigned) [Example 187]
1.1	O=C(O)C[C@@H](c1ccc(F)c(F)c1)N1CC(CCCCc2ccc3c(n2)NCCC3)C1 [Example 154]
3.2	Cc1ncc([C@H](CC(=O)O)N2CC(COCCc3ccc4c(n3)NCCC4)C2)cn1 [example 129, (S)-3-(2-methylpyrimidin-5-yl)-3-(3-((2-(5,6,7,8-tetrahydro-1,8-naphthyridin-2-yl)ethoxy)methyl)azetidin-1-yl)propanoic acid]
